# ChEMBL document CHEMBL6109094, “Anti-inflammatory agents design via the fragment hybrid strategy in the discovery of compound c1 for treating ALI and UC” (Eur J Med Chem, 2025)
# Calls of active or inactive are those of the source. The rule behind the calls is not given here.
# Molecular target: T1, Tyrosine-protein kinase JAK3 (Homo sapiens, UniProt P52333)
# T1 sequence (P52333 whole entry): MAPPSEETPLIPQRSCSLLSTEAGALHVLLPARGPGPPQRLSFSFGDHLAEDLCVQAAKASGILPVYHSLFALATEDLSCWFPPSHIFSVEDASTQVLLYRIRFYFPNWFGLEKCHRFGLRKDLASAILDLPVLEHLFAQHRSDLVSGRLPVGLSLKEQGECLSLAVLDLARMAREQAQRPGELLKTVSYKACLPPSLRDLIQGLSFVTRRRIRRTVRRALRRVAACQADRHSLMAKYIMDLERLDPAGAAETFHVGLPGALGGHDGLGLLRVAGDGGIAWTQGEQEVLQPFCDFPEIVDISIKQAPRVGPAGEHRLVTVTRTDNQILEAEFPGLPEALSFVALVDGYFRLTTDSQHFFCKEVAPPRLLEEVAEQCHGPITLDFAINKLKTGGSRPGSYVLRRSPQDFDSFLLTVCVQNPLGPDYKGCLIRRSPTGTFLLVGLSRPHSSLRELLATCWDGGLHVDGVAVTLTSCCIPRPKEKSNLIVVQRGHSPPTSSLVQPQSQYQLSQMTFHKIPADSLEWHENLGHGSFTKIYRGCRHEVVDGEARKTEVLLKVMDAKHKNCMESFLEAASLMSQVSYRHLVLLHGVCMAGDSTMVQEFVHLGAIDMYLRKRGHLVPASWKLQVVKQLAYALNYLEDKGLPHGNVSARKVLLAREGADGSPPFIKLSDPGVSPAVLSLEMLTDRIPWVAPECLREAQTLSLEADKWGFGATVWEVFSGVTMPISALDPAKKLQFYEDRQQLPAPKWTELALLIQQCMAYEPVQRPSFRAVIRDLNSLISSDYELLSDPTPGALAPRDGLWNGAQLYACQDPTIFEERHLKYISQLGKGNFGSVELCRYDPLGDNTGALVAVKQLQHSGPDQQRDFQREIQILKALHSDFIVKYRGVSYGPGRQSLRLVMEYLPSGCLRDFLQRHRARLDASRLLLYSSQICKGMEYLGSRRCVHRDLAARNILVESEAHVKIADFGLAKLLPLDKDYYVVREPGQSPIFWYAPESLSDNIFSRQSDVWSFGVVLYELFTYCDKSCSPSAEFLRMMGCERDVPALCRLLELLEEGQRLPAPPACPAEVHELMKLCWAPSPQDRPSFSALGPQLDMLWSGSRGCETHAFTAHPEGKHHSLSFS
# Assay: Inhibition of JAK3 (unknown origin)
# Conditions: not given
row,SMILES,IC50
1,COc1cc2ncnc(Nc3cc(Br)c(O)c(Br)c3)c2cc1OC,2500 nM

# System: RAW264.7
# Assay: Anti-inflammatory activity in mouse RAW264.7 cells assessed as inhibition of LPS-induced IL-6 level at 10 uM preincubated for 30 mins followed by LPS addition measured after 24 hrs by ELISA relative to control
# Assay type: functional
# Conditions: time 24.5 hrs
SMILES,inhibition at 10 µM,inhibition
COc1cc2ncnc(O[C@H]3CC[C@@H](NC(=O)CCN4CCNCC4)CC3)c2cc1O,9.85%,
COc1cc2ncnc(O[C@H]3CC[C@@H](NCCN4CCN(C(=O)OC(C)(C)C)CC4)CC3)c2cc1OC,10.8%,
COc1cc2c(O[C@H]3CC[C@@H](N)CC3)ncnc2cc1OCc1ccc(Br)cc1,,inactive
COc1cc2ncnc(O[C@H]3CC[C@@H](NC(=O)CCN4CCN(C(=O)OC(C)(C)C)CC4)CC3)c2cc1O,17.5%,
COc1cc2ncnc(O[C@H]3CC[C@@H](NCC4CCCNC4)CC3)c2cc1O (some centres not stated),,inactive
COc1cc2ncnc(O[C@H]3CC[C@@H](NCC4CCCN(C(=O)OC(C)(C)C)C4)CC3)c2cc1O (some centres not stated),68.7%,
Clc1ccc2c(O[C@H]3CC[C@@H](NCCN4CCNCC4)CC3)ncnc2c1,58.9%,
COc1cc2ncnc(O[C@H]3CC[C@@H](NCCN4CCNCC4)CC3)c2cc1OC,,inactive
COc1cc2ncnc(O[C@H]3CC[C@@H](NCCN4CCN(C(C)=O)CC4)CC3)c2cc1O,66.1%,
COc1cc2c(O[C@H]3CC[C@@H](N)CC3)ncnc2cc1OCc1ccccc1Br,33.2%,
COc1cc2c(O[C@H]3CC[C@@H](NCCN4CCNCC4)CC3)ncnc2cc1OCc1ccccc1,74.2%,
COc1cc2c(O[C@H]3CC[C@@H](N)CC3)ncnc2cc1OCc1ccc([N+](=O)[O-])cc1,86.6%,
COc1cc2c(O[C@H]3CC[C@@H](NCCN4CCN(C(=O)OC(C)(C)C)CC4)CC3)ncnc2cc1O,53.6%,
COc1cc2c(O[C@H]3CC[C@@H](N)CC3)ncnc2cc1OCc1cccc([N+](=O)[O-])c1,75.2%,
COc1cc2c(O[C@H]3CC[C@@H](N)CC3)ncnc2cc1OCc1ccccc1[N+](=O)[O-],30.6%,
COc1cc2ncnc(O[C@H]3CC[C@@H](NCCN4CCN(C(=O)OC(C)(C)C)CC4)CC3)c2cc1O,59.4%,
COc1cc2ncnc(O[C@H]3CC[C@@H](NCCCN4CCN(C)CC4)CC3)c2cc1O,4.51%,
COc1cc2ncnc(O[C@H]3CC[C@@H](NCCN4CCNCC4)CC3)c2cc1OCc1ccccc1,62.7%,
COc1cc2ncnc(O[C@H]3CC[C@@H](NC(=O)CN4CCNCC4)CC3)c2cc1O,37.1%,
COc1cc2c(O[C@H]3CC[C@@H](N)CC3)ncnc2cc1OCc1ccc(C)cc1,87.2%,
COc1cc2ncnc(O[C@H]3CC[C@@H](NC(=O)CN4CCN(C(=O)OC(C)(C)C)CC4)CC3)c2cc1O,11.8%,
COc1cc2ncnc(O[C@H]3CC[C@@H](NCCN4CCNCC4)CC3)c2cc1O,46.5%,
COc1cc2ncnc(O[C@H]3CC[C@@H](NCCN4CCN(C(=O)OC(C)(C)C)CC4)CC3)c2cc1OCc1ccccc1,58.1%,
COc1cc2c(O[C@H]3CC[C@@H](NCCN4CCNCC4)CC3)ncnc2cc1O,58.4%,
COc1cc2c(O[C@H]3CC[C@@H](NCCN4CCN(C(=O)OC(C)(C)C)CC4)CC3)ncnc2cc1OCc1ccccc1,,inactive
COc1cc2c(O[C@H]3CC[C@@H](N)CC3)ncnc2cc1OCc1cccc(C)c1,89.5%,
CC(C)(C)OC(=O)N1CCN(CCN[C@H]2CC[C@@H](Oc3ncnc4cc(Cl)ccc34)CC2)CC1,68.7%,

# System: RAW264.7
# Assay: cells
# Conditions: Mus musculus
# Description: Anti-inflammatory activity in mouse RAW264.7 cells assessed as inhibition of LPS-induced IL-6 level preincubated for 30 mins followed by LPS addition measured after 24 hrs by ELISA
row,SMILES,IC50
1,COc1cc2c(O[C@H]3CC[C@@H](NCCN4CCNCC4)CC3)ncnc2cc1OCc1ccccc1,3550 nM
2,COc1cc2c(O[C@H]3CC[C@@H](N)CC3)ncnc2cc1OCc1ccc([N+](=O)[O-])cc1,650 nM
3,COc1cc2c(O[C@H]3CC[C@@H](N)CC3)ncnc2cc1OCc1ccc(C)cc1,1590 nM
4,COc1cc2c(O[C@H]3CC[C@@H](N)CC3)ncnc2cc1OCc1cccc(C)c1,600 nM
